Laboratory results reported in patent US9828406B2, “Antitumor agent” (KINKI UNIVERSITY, priority 2011, dated 2017).

How the values were obtained:
[1] = test system: gastric cancer cells (MKN45); test: WST-8 cell proliferation assay, gastric cancer cells; assay type: cell-based, human; conditions: MKN45, cultured for 24 hours, WST-8 assay, DMSO control = 100%
Experimental: (§1) For cell culture, RPMI1640 medium (manufactured by Gibco Co., Ltd.) and DMEM medium (manufactured by Gibco Co., Ltd.) were mixed in a ratio of 1:1 and supplied 7% FBS (fetal bovine serum, manufactured by Nichirei Biosciences Inc.) and antibiotic mixture (mixture of penicillin, streptomycin, amphotericin B Mix, 100-fold concentrated solution (Nakarai Co.). Trypsinized cells were diluted to 1×10^5 cells/ml and seeded at 400 μl/well in 48-well dishes. Immediately after seeding, the test compound (dissolved in DMSO) was added to a final concentration of 0.5%, cultured for 24 hours in a CO2 incubator under an atmosphere of 5% of CO2, at a temperature of 36° C. to 37° C. After culturing, WST-8 assay was performed. An activity value of DMSO control was set to 100%, and the activities of each cell to which the test compound was added were investigated.
(§2) To 400 μl of cells culture, 18 μl of Cell Count Reagent SF (manufactured by Nacalai Inc.) was added. After being cultured for 2 to 3 hours (in a case where activity is low, cultured for 19 hours) under an atmosphere of 5% of CO2, at a temperature of 36° C. to 37° C., the broth was stirred, and the amount of formazan produced in the broth was calculated from absorbance at a wavelength of 450 nm. Using a measured value at a wavelength of 600 nm as a control, OD450-OD600 was set to an activity value.

[2] = test system: acute lymphoblastic leukemia T-cells (Molt-4); test: WST-8 cell proliferation assay, acute lymphoblastic leukemia T-cells; assay type: cell-based, human; conditions: Molt-4, cultured for 24 hours, WST-8 assay, DMSO control = 100%
Experimental: as §1
(§3) To 400 μl of cells culture, 18 μl of Cell Count Reagent SF (manufactured by Nacalai Inc.) was added. After being cultured for 2 to 3 hours (in a case where activity is low, cultured for 19 hours) under an atmosphere of 5% of CO2, at a temperature of 36° C. to 37° C., the broth was stirred, and the amount of formazan produced in the broth was calculated from absorbance at a wavelength of 450 nm. Using a measured value at a wavelength of 600 nm as a control, OD450-OD600 was set to an activity value. […]

[3] = test system: normal embryonic kidney-derived cells (HEK293F); test: WST-8 cell proliferation assay, normal embryonic kidney-derived cells; assay type: cell-based; conditions: cultured for 24 hours, WST-8 assay, DMSO control = 100%
Experimental: as §1, §2

[4] = test system: cervical cancer cells (HeLa); test: Combination with cisplatin, survival rate of tumor cells (WST-8); assay type: cell-based, human
Experimental: as §1, with “After culturing, WST-8 assay was performed. An activity value of DMSO control was set to 100%, and the activities of each cell to which the test compound was added were investigated.” left out
as §3
The survival rate of the tumor cells was calculated, in the same manner as in Example 4 except that 15 μM of the glycoside compound and 333 μM of cisplatin were added to the medium immediately after seeding the tumor cells. […]

[5] = test system: urinary bladder cancer cells (T24); test: Combination with doxorubicin, survival rate of tumor cells (WST-8); assay type: cell-based, human; conditions: T24, 10 μM doxorubicin alone
Experimental: as §1, §3

[6] = test system: renal cancer cells (ACHN); test: Combination with paclitaxel, survival rate of tumor cells (WST-8); assay type: cell-based, human; conditions: 29 nM paclitaxel alone
Experimental: as §1, with “After culturing, WST-8 assay was performed. An activity value of DMSO control was set to 100%, and the activities of each cell to which the test compound was added were investigated.” left out
as §3
A survival rate of the tumor cells was calculated, in the same manner as in Example 4 except that 5 μM of the glycoside compound and 29 nM of paclitaxel were added to the medium immediately after seeding the tumor cells.

`CCCCCCCC(=O)O[C@@H]1[C@H](OC[C@@H](O)[C@@H](O)[C@H](O)[C@H](O)[C@@H](O)CO)O[C@H](COC(=O)CCCCC)[C@@H](OC(=O)CCCCC)[C@@H]1OC(=O)CCCCC` [Preparation Example 24, D-glycero-D-galactoheptitol-1-yl 3,4,6-tri-O-hexanoyl-2-O-octanoyl-β-D-mannopyranoside] was tested, and the IC50 [1] was 16 µM, the IC50 [2] was 8.1 µM and the IC50 [3] was 21.8 µM.

In the case of `N.N.[Cl][Pt][Cl]` [cisplatin], the “Survival Rate after 19 Hours” value ([4]; 42 μM cisplatin alone, WST-8 incubated for 19 hours) is reported as 106.8% and the “Survival Rate after 2 Hours” value ([4]; 333 μM cisplatin alone, WST-8 incubated for 2 hours) is reported as 58.8%.

In the case of `COc1cccc2c1C(=O)c1c(O)c3c(c(O)c1C2=O)C[C@@](O)(C(=O)CO)C[C@@H]3O[C@H]1C[C@H](N)[C@H](O)[C@H](C)O1` [doxorubicin], the “survival rate of the tumor cells” value [5] is reported as 57.3%.

For `CC(=O)O[C@H]1C(=O)[C@@]2(C)[C@H]([C@H](OC(=O)c3ccccc3)[C@]3(O)C[C@H](OC(=O)[C@H](O)[C@@H](NC(=O)c4ccccc4)c4ccccc4)C(C)=C1C3(C)C)[C@]1(OC(C)=O)CO[C@@H]1C[C@@H]2O` [paclitaxel], the “survival rate of the tumor cells” value [6] was 63.8%.
